Tests used:
[1] = tested on: Chronic Unpredictable Mild Stress (CUMS) Depressive Rats; test: Forced swimming test (FST) in CUMS model rats; details: 8th week of CUMS, 6-minute forced swimming, trazodone 10 mg/kg/day ig, x ± SD
[2] = tested on: Chronic Unpredictable Mild Stress (CUMS) Depressive Rats; test: Sucrose preference test (SPT) in CUMS model rats; details: trazodone 10 mg/kg/day ig, x ± SD; for SPT After 2 Weeks of Treatment (%): 5th week of CUMS; for SPT After 4 Weeks of Treatment (%): 7th week of CUMS
[3] = tested on: Chronic Unpredictable Mild Stress (CUMS) Depressive Rats; test: Elevated plus maze (EPM) test in CUMS model rats; details: 9th week of CUMS, 5-minute EPM, trazodone 10 mg/kg/day ig, x ± SD

Structure (SMILES): O=c1n(CCCN2CCN(c3cccc(Cl)c3)CC2)nc2ccccn12 [Trazodone]
- Immobility Time in FST After 5 Weeks of Treatment (s) ([1]; n=8): 82.28 ± 21.64 ^ s
- Immobility Time in FST After 5 Weeks of Treatment (s) ([1]; n=8, listed as trazodone): reduced
- SPT After 2 Weeks of Treatment (%) ([2]; n=8): 74.00 ± 11.22%
- SPT After 2 Weeks of Treatment (%) ([2]; n=8, listed as trazodone): no significant difference
- SPT After 4 Weeks of Treatment (%) ([2]; n=8): 84.55 ± 16.77 ^ %
- SPT After 4 Weeks of Treatment (%) ([2]; n=8, listed as trazodone): significantly increased
- Time Spent Exploring the Open Arms in the 6th Week of Treatment (s) ([3]; n=8): 4.90 ± 2.06 ^ s
- Time Spent Exploring the Open Arms in the 6th Week of Treatment (s) ([3]; n=8, listed as trazodone): no significant change

From patent publication US20260256775A1, “METHOD FOR TREATING MENTAL DISEASES” (SHANGHAI RAISING PHARMACEUTICAL CO., LTD., priority 2022, published 2026)
